# Reference: PMC6934184, “Selective DNA-PKcs inhibition extends the therapeutic index of localized radiotherapy and chemotherapy” (The Journal of Clinical Investigation, 2019)
# Target: T1, SNF1LK2 (Homo sapiens, UniProt Q9H0K1)
# T1 construct: purchased Thermo Fisher Scientific (Life Technologies) SelectScreen
# Assay: SelectScreen Z'LYTE
# Format: biochemical
# How it was run: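 NU5455 was profiled across the SelectScreen Broad panel of kinase activity and binding assays. Z'LYTE reactions such as CSF1R ran at apparent Km ATP, while the Adapta CAMK1 assay used ATP listed as 10. Values are given as percent.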
# T1 sequence (Q9H0K1 whole entry): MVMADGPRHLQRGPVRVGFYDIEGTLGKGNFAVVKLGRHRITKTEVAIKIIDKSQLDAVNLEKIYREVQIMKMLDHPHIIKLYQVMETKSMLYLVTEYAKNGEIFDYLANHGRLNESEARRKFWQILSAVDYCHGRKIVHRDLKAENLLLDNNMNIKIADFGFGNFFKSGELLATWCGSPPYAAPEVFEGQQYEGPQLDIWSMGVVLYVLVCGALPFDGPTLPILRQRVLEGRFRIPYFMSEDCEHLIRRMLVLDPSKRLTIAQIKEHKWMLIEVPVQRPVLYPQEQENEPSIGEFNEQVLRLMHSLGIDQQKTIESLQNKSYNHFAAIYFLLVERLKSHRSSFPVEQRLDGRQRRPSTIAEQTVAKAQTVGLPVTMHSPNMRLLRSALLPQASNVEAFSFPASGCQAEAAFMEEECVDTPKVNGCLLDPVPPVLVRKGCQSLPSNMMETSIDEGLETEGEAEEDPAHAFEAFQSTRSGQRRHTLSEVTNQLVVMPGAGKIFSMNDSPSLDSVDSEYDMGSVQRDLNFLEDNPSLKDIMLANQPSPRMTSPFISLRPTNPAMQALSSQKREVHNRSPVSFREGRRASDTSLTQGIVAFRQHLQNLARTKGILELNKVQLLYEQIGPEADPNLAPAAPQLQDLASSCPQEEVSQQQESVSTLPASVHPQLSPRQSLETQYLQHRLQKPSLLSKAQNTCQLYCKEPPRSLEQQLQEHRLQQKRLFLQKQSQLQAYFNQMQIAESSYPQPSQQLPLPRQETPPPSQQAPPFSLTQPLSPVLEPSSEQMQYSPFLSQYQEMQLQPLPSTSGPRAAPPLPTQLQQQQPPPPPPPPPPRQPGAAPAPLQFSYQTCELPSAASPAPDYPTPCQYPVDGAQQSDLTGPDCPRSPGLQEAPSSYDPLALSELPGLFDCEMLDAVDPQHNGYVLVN
smiles,measurement,value
CN(C(=O)CN1CCOCC1)c1ccc2sc3c(-c4cccc5c(=O)cc(N6CC7CCC(C6)O7)oc45)cccc3c2c1 [NU5455],inhibition at 1 µM,26.6%
